# Test results published in ChEMBL document CHEMBL1149790, “Synthesis of some novel thiourea derivatives obtained from 5-[(4-aminophenoxy)methyl]-4-alkyl/aryl-2,4-dihydro-3H-1,2,4-triazole-3-thiones and evaluation as antiviral/anti-HIV and anti-tuberculosis agents” (Eur J Med Chem, 2008).
# Test system: Mycobacterium tuberculosis
# Experiment: Antitubercular activity against Mycobacterium bovis BCG
# Assay type: functional
# Conditions: variant bovis BCG
compound,measurement,value
CC(C)CCOc1ccc(NC(=S)Nc2ccc(OCCC(C)C)cc2)cc1 [TIOCARLIDE],MIC,0.5 µg/mL
